Experimental data reported in patent US12527835B2, “Brevican-binding peptides for brain tumor imaging” (The Brigham and Women's Hospital, Inc., priority 2018, dated 2026).
Where a SMILES comes first, the peptide text is derived from it. [ ]: non-standard residue; d: D form.

Assays:
HEK-Bcan cells = experiment: Flow cytometry blocking study with 50× molar excess of unlabeled peptide; assay type: cell-based, human; conditions: fluorescein-conjugated peptide 1 μM
Method: Cells were washed once with PBS and then, treated with 1 mL of 2.5 mM EDTA to dissociate the cells. The EDTA was removed by centrifugation, and PBS supplemented with 10% FBS was added to create a single-cell suspension. All peptide stocks were dissolved in DMSO, and stored at −20° C. in the dark. Cells were incubated with each peptide (at the desired final concentration, between 1-10 μM) for 3 hrs at 37° C. in the dark under constant rotation. After incubation, cells were washed 3× with PBS with 10% FBS (by centrifugation at 7000 rpm for 3 mins each). Then, cells were resuspended in 3.7% formaldehyde for fixation, and finally washed once with PBS. Cells were evaluated for peptide uptake (mean fluorescence intensity) by flow cytometry (10,000-20,000 events).
For blocking studies, cells were dissociated as described above and resuspended in cold PBS with 10% FBS. Cells were then incubated with a 50× molar excess of unlabeled peptide for 10 mins on ice, before adding the corresponding FITC-labeled peptide at a final concentration of 1 μM and incubated for 1.5 hrs on ice. Cells were then washed with cold PBS with 10% FBS, fixed and analyzed by flow cytometry.

[1] = target: T1, BΔg-derived peptide (a.a. 535-548 of BΔg) (Homo sapiens, UniProt Q96GW7); experiment: Circular dichroism of peptide mixed with BΔg-derived peptide; assay type: binding; conditions: CD spectrometry, 50 μM each peptide
T1 construct: purchased GenScript USA Inc; host or cells: chemical synthesis
Method: (§1) The BΔg peptide (or control BΔg(Scramble) peptide), BTP-7-FITC peptide, or a mixture of both (dissolved in Milli-Q H2O to a final concentration of 50 μM for each peptide) was loaded into a quartz cuvette (1 mm pathlength; Hellma Analytics Catalog #110-1-40). The cuvette was inserted into the Jasco J-815 circular dichroism spectropolarimeter, and the spectral scan measurement was conducted using the Spectrum Manager 2 software. The cuvette was rinsed with Milli-Q H2O in between each run. A blank (water) was run to establish the baseline for all samples. Scans were measured from 190 nm to 260 nm in a continuous mode (50-100 nm/min) at 20° C. To measure the BTP-7 structural change in the presence of either the BΔg (or control scramble) peptide, spectrum of the BΔg (or scramble) peptide alone was subtracted from the spectrum of the mixture, and then overlaid with the spectrum of BTP-7 alone for comparison. To investigate the structural changes in BTP-7 in a dose-dependent manner, 50 μM of BTP-7 peptide was loaded together with varying concentrations of either the BΔg (or control scramble) peptide. Similarly, the spectrum of each BΔg (or control scramble) peptide at the concentration was subtracted from the spectrum of the corresponding mixture, and then overlaid with the spectrum of BTP-7 alone for comparison.

[2] = tested on: BΔg-derived peptide (a.a. 535-548 of BΔg); experiment: as above; assay type: binding, human; conditions: CD spectrometry, control peptide
Method: as §1

SMILES: CC[C@@H](C)[C@@H](NC(=O)[C@H](N)[C@H](C)O)C(=O)N[C@H](CCCNC(=N)N)C(=O)N[C@H](CCCCN)C(=O)N[C@H](CC(C)C)C(=O)N[C@@H](C(=O)N[C@H](CCCNC(=N)N)C(=O)N[C@H](Cc1c[nH]cn1)C(N)=O)C(C)C [BTP-8] (H-[dT][dI][dR][dK][dL][dV][dR][dH]-NH2; N-terminus and C-terminus assumed)
- uptake in HEK-Bcan cells in the presence of the blocking peptide (HEK-Bcan cells): reduced uptake
- peptide conformation in the presence of the BΔg-derived peptide [1]: unaffected
- peptide conformation in the presence of the scramble(BΔg) peptide [2]: unaffected
